Assay results reported in patent US11384065B2, “Heterocyclic compound as CSF-1R inhibitor and use thereof” (MEDSHINE DISCOVERY INC., priority 2018, dated 2022).

What was measured:
[1] = target: CSF-1R (Homo sapiens (Human), UniProt P07333); assay: In vitro inhibitory activity on CSF-1R kinase (33P-ATP filter-binding, Reaction Biology Corporation); type: biochemical; conditions: CSF-1R 2.5 nM, filter-binding method
Protocol: Experimental Example 1: In Vitro Inhibitory Activity of the Compounds of the Present Invention on CSF-1R in Terms of Enzymology The compounds of the present invention for experiments were made in house, and their structural formulas were shown in the preparation examples of each compound. The experimental tests were conducted at Reaction Biology Corporation in the United States, and the experimental results were provided by the company. Experimental Reagents: Necessary reaction buffer: 20 mM hydroxyethylpiperazine ethanesulfonic acid (pH 7.5), 10 mM magnesium chloride, 1 mM EGTA, 0.02% Brij35, 0.02 mg/mL bovine serum albumin, 0.1 mM Na3VO4, 2 mM DTT, 1% DMSO. The necessary cofactors were added separately to the CSF-1R kinase reaction. Enzyme: the concentration of CSF-1R was 2.5 nM Treatment with the Compounds: The compound to be tested was formulated with 100% DMSO into a solution with a specific concentration, and serial dilution was performed with DMSO through the intelligent pipetting assistant Integra Viaflo Assist. Experimental Procedure: […] All necessary cofactors were added to the above reaction buffer; CSF-1R kinase was added to the above matrix solution and shaken gently; Using acoustic technology (Echo550; nanoliter range), a solution of the compound in DMSO was added to the above kinase reaction mixture, and the reaction solution was incubated at room temperature for 20 minutes; ^33P-ATP (specific activity, 10 μCi/μl) was added to the above kinase reaction mixture to initiate the reaction; The reaction solution was incubated at room temperature for 2 hours; The kinase activity was detected by the filter-binding method; The kinase activity was the ratio of the remaining kinase in the test sample to the vehicle (DMSO) group. IC50 values and profiles were obtained using Prism (GraphPad software).

[2] = Pharmacokinetic study after intravenous injection and oral administration (plasma, LC-MS/MS); type: in vivo, rats; conditions: for AUC(0-t) / C0 / Vd / clearance / half-life / Cmax: male, SD, rat, plasma
Excerpt: Example 2 Pharmacokinetic Study on Mice and Rats (PK)
The purpose of this experiment was to study the pharmacokinetics of the test article in the plasma of male C57BL/6J mice and SD rats after intravenous injection and oral administration.
The animals were randomly divided into two groups with 2 males in each group. The compounds were formulated into prescribed preparations. Preparations for intravenous injection were clear solutions, and oral preparations could be clear or homogeneous suspensions.
Whole blood samples were collected from the jugular vein puncture or saphenous vein of the animals 5 minutes, 15 minutes, 30 minutes, 1 hour, 2 hours, 4 hours, 6 hours, and 8 hours after administration. The whole blood sample was added to the centrifuge tube containing anticoagulant, and centrifuged at 3000 g for 15 minutes at 4° C. The supernatant of plasma was taken, frozen quickly on dry ice, and then stored in a −70° C.±10° C. refrigerator until LC-MS/MS analysis.
WinNonlin™ Version 6.3.0 (Pharsight, Mountain View, Calif.) pharmacokinetic software was used to process the plasma drug concentration data of the compounds with a non-compartmental model. The peak concentration (Cmax), peak time (Tmax) and quantifiable end time were obtained directly from the blood drug concentration-time profile.
The following pharmacokinetic parameters were calculated using the log-linear trapezoid method: Plasma clearance rate (CL), volume of distribution (Vd), elimination phase half-life (T1/2), average residence time of drug in the body from 0 to the end time point (MRT0-last), average residence time of the drug in the body from 0 to infinite time (MRT0-inf), area under the time-plasma concentration curve from 0 to the end time point (AUC0-last), area under the time-plasma concentration curve from 0 to infinite time (AUC0-inf) and bioavailability (F), C0 was the initial concentration.

CSF-1R, sequence (P07333 20-972): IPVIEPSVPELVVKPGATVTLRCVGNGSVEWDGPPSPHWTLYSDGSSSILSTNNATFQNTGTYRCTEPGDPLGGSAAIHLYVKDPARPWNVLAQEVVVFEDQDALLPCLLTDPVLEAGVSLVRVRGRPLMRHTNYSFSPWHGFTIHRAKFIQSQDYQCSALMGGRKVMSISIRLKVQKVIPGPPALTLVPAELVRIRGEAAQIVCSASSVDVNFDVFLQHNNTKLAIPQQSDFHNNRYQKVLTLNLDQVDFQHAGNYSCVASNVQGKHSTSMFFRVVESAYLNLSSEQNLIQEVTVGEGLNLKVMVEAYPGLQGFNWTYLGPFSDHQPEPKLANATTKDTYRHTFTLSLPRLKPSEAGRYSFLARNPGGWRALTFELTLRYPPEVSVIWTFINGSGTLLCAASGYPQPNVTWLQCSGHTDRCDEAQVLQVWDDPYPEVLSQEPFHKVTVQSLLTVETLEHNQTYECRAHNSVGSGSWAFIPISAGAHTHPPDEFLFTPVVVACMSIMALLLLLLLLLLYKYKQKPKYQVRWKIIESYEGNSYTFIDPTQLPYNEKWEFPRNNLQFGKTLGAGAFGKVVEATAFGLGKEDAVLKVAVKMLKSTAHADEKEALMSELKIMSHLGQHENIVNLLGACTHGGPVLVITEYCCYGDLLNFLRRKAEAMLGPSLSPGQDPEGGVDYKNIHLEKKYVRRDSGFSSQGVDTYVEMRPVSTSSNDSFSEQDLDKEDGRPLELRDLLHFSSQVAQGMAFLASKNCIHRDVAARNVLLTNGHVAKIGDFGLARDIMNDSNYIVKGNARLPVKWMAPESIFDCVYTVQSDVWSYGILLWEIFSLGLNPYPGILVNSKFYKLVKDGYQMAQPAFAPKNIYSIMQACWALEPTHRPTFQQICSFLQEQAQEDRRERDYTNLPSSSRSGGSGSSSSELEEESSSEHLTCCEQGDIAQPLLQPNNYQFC

Row | Structure (SMILES) | IC50 [1] | further results
1 | Cc1cc(NCc2ccc(C(F)(F)F)nc2)ncc1-c1ccc(N(C)C)c2c1CNC2=O [Compound 1] | 3.06 nM | –
2 | Cc1cc(NCc2ccc(C(F)(F)F)nc2)ncc1-c1ccc(N)c2c1CNC2=O [Compound 2] | 1.55 nM | –
3 | CC(=O)Nc1ccc(-c2cnc(NCc3ccc(C(F)(F)F)nc3)cc2C)c2c1C(=O)NC2 [Compound 3] | 24.5 nM | –
4 | CNc1ccc(-c2cnc(NCc3ccc(C(F)(F)F)nc3)cc2C)c2c1C(=O)NC2 [Compound 4] | 1.27 nM | –
5 | CNc1ccc(-c2cnc(Nc3ccc(OC4CC4)nc3)cc2C)c2c1C(=O)NC2 [Compound 5] | 1.68 nM | –
6 | CNc1ccc(-c2cnc(Nc3ccc(C4(C#N)CC4)nc3)cc2C)c2c1C(=O)NC2 [Compound 6] | 5.01 nM | –
7 | CCOc1ccc(Nc2cc(C)c(-c3ccc(NC)c4c3CNC4=O)cn2)cn1 [Compound 7] | 1.87 nM | –
8 | CNc1ccc(-c2cnc(Nc3ccc(OC(F)F)nc3)cc2C)c2c1C(=O)NC2 [Compound 8] | 4.98 nM | –
9 | CNc1ccc(-c2cnc(Nc3ccc(N(C)C)nc3)cc2C)c2c1C(=O)NC2 [Compound 9] | 1.41 nM | –
10 | CNc1ccc(-c2cnc(Nc3cnc(C4CC4)nc3)cc2C)c2c1C(=O)NC2 [Compound 10] | 2.61 nM | F ([2]; PO (10 mpk)): 106%; AUC(0-t) ([2]; 1 mg/kg, IV (1 mpk)): 18.7 µM·h; C0 ([2]; 1 mg/kg, IV (1 mpk)): 6.29 µM; Vd ([2]; 1 mg/kg, IV (1 mpk)): 0.495 L/kg; clearance ([2]; 1 mg/kg, IV (1 mpk)): 2.31 mL/min/kg; half-life ([2]; 1 mg/kg, IV (1 mpk)): 2.53 h; AUC(0-t) ([2]; 10 mg/kg, PO (10 mpk)): 198 µM·h; Cmax ([2]; 10 mg/kg, PO (10 mpk)): 33 µM
11 | CNc1ccc(-c2cnc(Nc3ccc(C4CC4)nn3)cc2C)c2c1C(=O)NC2 [Compound 11] | 4.71 nM | –
12 | CNc1ccc(-c2cnc(Nc3cnc(C4CC4)cn3)cc2C)c2c1C(=O)NC2 [Compound 12] | 1.89 nM | –
13 | CNc1ccc(-c2cnc(Nc3ncc(C4CC4)cn3)cc2C)c2c1C(=O)NC2 [Compound 13] | 3.78 nM | –
14 | CNc1ccc(-c2cnc(Nc3ccc(C4CC4)cn3)cc2C)c2c1C(=O)NC2 [Compound 14] | 2.5 nM | –
15 | CNc1ccc(-c2cnc(Nc3ccc(C4CC4)nc3)cc2C)c2c1C(=O)NC2 [Compound 15] | 0.82 nM | –
16 | CNc1ccc(-c2cnc(Nc3cnc(OC4CC4)nc3)cc2C)c2c1C(=O)NC2 [Compound 16] | 2.49 nM | –
17 | CNc1ccc(-c2cnc(Nc3ccc(OC4CC4)cn3)cc2C)c2c1C(=O)NC2 [Compound 17] | 4.15 nM | –
18 | CNc1ccc(-c2cnc(Nc3ccc(OC4CC4)nn3)cc2C)c2c1C(=O)NC2 [Compound 18] | 3.43 nM | –
19 | CNc1ccc(-c2cnc(Nc3cnc(OC4CC4)cn3)cc2C)c2c1C(=O)NC2 [Compound 19] | 2.55 nM | –
20 | CNc1ccc(-c2cnc(Nc3ccn(C4CC4)c(=O)c3)cc2C)c2c1C(=O)NC2 [Compound 20] | 12.1 nM | –
21 | COc1ccc(-c2ccc(NC(=O)Nc3cccc(C)c3)cc2)c2c1C(=O)NC2 [Control compound, reference compound] | – | F ([2]; PO (10 mpk)): 3.92%; AUC(0-t) ([2]; 1 mg/kg, IV (1 mpk)): 0.918 µM·h; C0 ([2]; 1 mg/kg, IV (1 mpk)): 3.72 µM; Vd ([2]; 1 mg/kg, IV (1 mpk)): 1.48 L/kg; clearance ([2]; 1 mg/kg, IV (1 mpk)): 46.7 mL/min/kg; half-life ([2]; 1 mg/kg, IV (1 mpk)): 0.92 h; AUC(0-t) ([2]; 10 mg/kg, PO (10 mpk)): 0.333 µM·h; Cmax ([2]; 10 mg/kg, PO (10 mpk)): 0.104 µM
